Results reported in the METLIN SMRT retention time set (Domingo-Almenara et al. 2019).

Experiment: gradient 5% acetonitrile 3 min, to 50% in 2 min, to 85% in 15 min, held 3 min, 100 µL/min
Settings: column: Zorbax Extend-C18 2.1 x 50 mm; eluents: water / acetonitrile, 0.1% formic acid
Summary of the method: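 Pure standards were run in mixtures of ~100 molecules by HPLC coupled to a quadrupole time-of-flight mass spectrometer. The column was a Zorbax Extend-C18 (2.1 × 50 mm, 1.8 μm) at 100 μL/min, with water and acetonitrile each containing 0.1% formic acid, in positive and negative ionization mode. Dead and dwell volumes were 40 μL and 900 μL. Retention time was taken from computationally picked adduct peaks, each manually inspected, with data collected over 3 months.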

RP-LC retention time [s] | Structure (SMILES)
616 | O=S(=O)(Cc1cccc(Cl)c1)N1CCc2nc[nH]c2C1
1030 | Cc1nc2cc(-c3noc(COc4ccccc4)n3)ccc2o1
1120 | CCCn1cc(C(=O)Nc2cccc(C)c2)c(S(=O)(=O)N2CCSCC2)n1
1270 | CCN(C(=O)c1ccc(OC)c(OC)c1)c1nc(-c2ccc(Br)cc2)cs1
744 | CCN1C(=O)C(C)(C(=O)NCc2cccc(C)c2)Oc2cccnc21 (configuration not stated)
888 | Cc1ccc(C)c(CNC(=O)C2CCc3nc(N4CCOCC4)ncc3C2)c1 (configuration not stated)
748 | CC(=O)c1ccc(NC(=O)NC2CCN(c3nc4ccccc4n(C)c3=O)CC2)cc1
840 | CN1C(=O)c2cc(C(=O)NCc3ccc(F)cc3)nn2CC1(C)C(=O)NC1CCCCCC1 (configuration not stated)
1100 | Cc1ccccc1CNC(=O)c1nnc(-c2ccc(S(=O)(=O)N3CCC(C)CC3)cc2)o1
556 | COc1ccc(CN2CCC(C3CCNC3)CC2)c(Cl)c1OC (configuration not stated)
890 | O=S(=O)(CCc1noc(-c2nccc3ccccc23)n1)c1ccccc1
1190 | COc1ccc(Cl)cc1NC(=O)N1CCC2(CC1)NC(=O)c1ccccc1O2
1300 | CCn1c(=O)oc2cc(-c3noc(-c4cc(C)cc(C)c4)n3)ccc21
770 | CCCn1cc(-c2nc(-c3cccnc3)no2)c(=O)c2cc(F)ccc21
916 | Cc1sc(-c2nnc(C3CC3)o2)cc1NC(=O)c1n[nH]c2c1CCCC2
990 | CCN1C(=O)COc2ccc(-c3nc(NC(=O)c4cccs4)sc3C)cc21
734 | Cc1cc(=O)n(CC(=O)NCCC2=CCCCC2)c(N2CCCCC2)n1
990 | CCC(C)NC(=O)c1nccnc1NC(=O)c1ccc(C)cc1 (configuration not stated)

RP-LC retention time [s] | Structure (SMILES)
684 | COCCNCc1ccc(-c2cc(Cl)ccc2Cl)o1
1070 | O=C(C1CCN(c2nc3ccc(-c4cccc(F)c4)nc3s2)CC1)N1CCCCC1
831 | Cc1nc2ccccc2c(=O)n1Cc1noc(-c2ccc3c(c2)OCO3)n1
714 | CC(C)CCNC(=O)c1csc(-c2ccc(N3CCCC3)nc2)n1
1040 | COc1ccc(-c2nc(-c3cn(-c4cccc(Cl)c4)nn3)no2)cc1OC
706 | COc1ccc(-c2cn3cccnc3n2)cc1NC(=O)c1ccccc1F
665 | c1ccc(-c2nc(-c3ccnc(N4CCOCC4)c3)no2)nc1
882 | CC(C)Cn1nc(CNC(=O)c2ccsc2)c2ccccc21
806 | CN1C(=O)COc2ccc(-c3csc(NC(=O)c4ccco4)n3)cc21
1070 | Cc1ccccc1-c1noc(-c2ccc(S(=O)(=O)N3CCCC3)o2)n1
638 | Cc1ccc2c(=O)c3c([nH]c2c1C)CCN(CC(=O)Nc1cc(F)ccc1F)C3
734 | COc1ccccc1NC(=O)C1CCN(S(=O)(=O)c2ccc3[nH]c(=O)ccc3c2)CC1
786 | O=C(CC1CCCC1)N1CCC(c2noc(-c3ccncc3)n2)C1 (configuration not stated)
704 | COc1cc(-c2nc3ncccn3c2Nc2ccc(C)c(Cl)c2)ccc1O
786 | Cn1ncc(N2CCCC(C(=O)Nc3ccc4c(c3)CCC4)C2)cc1=O (configuration not stated)
682 | COCCNC(=O)C1CCc2sc(C(=O)N3CCCCCC3)cc2C1 (configuration not stated)
688 | O=C(NCc1cccs1)C1CN(C(=O)c2ccc(F)c(F)c2)C1

Structure (SMILES) | RP-LC retention time [s]
C(=C\c1ccccc1)/CN1CCN(CCOC(c2ccccc2)c2ccccc2)CC1 | 884
COc1ccc(-c2cn3c(CC(=O)N4CCN(Cc5ccccc5)CC4)csc3n2)cc1OC | 596
